This assay is described as follows: blockers of an Epstein-Barr virus protein-peptide interaction – biochemical, fluorescence polarization, dose response (AID 1419). The following applies: cell-free protein-peptide binding, 2 h; for fold change: measured here: P channel fold over control, at 54 µM. (Fluorescence polarisation rises when a labelled molecule tumbles more slowly, as on binding a larger partner.)

This passage reports IC50 and fold change results from PubChem BioAssay AID1419 (Emory University Molecular Libraries Screening Center, 2008).

Active and inactive are the calls of the source. No rule for the calls is given here. Where only a bound is given, the exact number is not on record here.

In general, IC50 refers to the concentration at which inhibition is half-maximal.

For `CCCN1C(=O)/C(=C\C=C2\N(CC)c3ccccc3C2(C)C)SC1=S`, the 50% inhibitory concentration (IC50) was 3.39 µM and the fold change was found to be 20.

In the case of `Cc1cccc2cc(/C=C3\N=C(c4ccccc4)OC3=O)c(N3CCOCC3)nc12`, the IC50 was 13.2 µM and the fold change is 12.5.

On to `CC(C)C[C@H]1C(=O)N2CCCC2[C@]2(O)O[C@](NC(=O)[C@@H]3C=C4c5cccc6[nH]cc(c56)CC4N(C)C3)(C(C)C)C(=O)N12` (some centres undefined), for which the IC50 is 8.52 µM and the fold change was determined as 2.39.

Take `O=C1N=c2ccccc2=C1c1sc(Nc2ccc(O)cc2)nc1O`: the IC50 is 1.88 µM and the fold change was 0.2.

Regarding `O=C(Nc1ccc2[nH]c3c(c2c1)CCCC3)c1ccco1`, the IC50 is 27.9 µM and the fold change is 2.83.

Consider `O=C(c1ccccc1)c1ccc2c(c1)OCCCO2`, for which the IC50 was > 54 µM (inactive) and the fold change is 1.02.

As to `Cn1c(=O)c(NCCc2ccccc2)c2c3c(cccc31)C(=O)c1ccccc1-2`, the IC50 was < 0.42 µM and the fold change was found to be 226.

Consider `O=C(NNC1=Nc2cccc3cccc1c23)c1ccc(Br)cc1`, for which the IC50 was > 54 µM (inactive) and the fold change came out at 3.27.

On to `CCNc1ccc2noc3c2c1C(=O)c1ccccc1-3`, for which the IC50 is < 0.42 µM and the fold change was 235.

For `CCCN1CC=C2C(C#N)=C(N)C(C#N)(C#N)C(c3cccc(OC)c3OC)C2C1` (centres undefined), the IC50 was 1.28 µM and the fold change came to 7.4.

Regarding `N#Cc1cccc(NC(=O)CSc2ccc3c4c(cccc24)C(=O)c2ccccc2-3)c1`, the IC50 is 5.72 µM and the fold change is 3.94.

Consider `CN(C)c1ccc(/C=C2\SC(=O)N(CC(O)Cn3c4ccccc4c4ccccc43)C2=O)cc1` (centres undefined), for which the IC50 was 2.46 µM and the fold change came out at 10.3.

`Cc1ccsc1C1C=C(c2cccc(Br)c2)Nc2ncnn21` (centres undefined): the IC50 is 1.75 µM and the fold change stood at 3.13.

As to `CCOC(=O)[C@@]1(C#N)C(c2ccc(Cl)c(Cl)c2)[C@H](C(N)=O)N2C=C(C(C)=O)C=C[C@H]21` (some centres undefined), the IC50 is 1.41 µM and the fold change is 9.48.

In the case of `Cn1cc(Cl)c(C(=O)Nc2nc3ccc([N+](=O)[O-])cc3s2)n1`, the IC50 is > 54 µM (inactive) and the fold change was 0.983.

For the compound `CN1CC=C2C(C#N)=C(N)C(C#N)(C#N)[C@H](c3ccoc3)[C@H]2C1`, the IC50 is > 54 µM (inactive) and the fold change is 1.96.

As to `C(=N\NC1=Nc2cccc3cccc1c23)/c1ccccc1`, the IC50 was 16.9 µM and the fold change is 11.4.

As for `Nc1ccc2c(c1Cl)C(=O)c1ccc(N)c(Cl)c1C2=O`, the IC50 is 11.4 µM and the fold change worked out at 1.07.

Take `N#CC1=C(N)OC2=C(CC/C2=C\c2ccccc2)C1c1ccccc1` (centres undefined): the IC50 is < 0.42 µM and the fold change came out at 6.24.

Consider `O=C1NC(=S)/C(=C\c2ccc(-c3ccccc3Cl)o2)S1`, for which the IC50 is 26.9 µM and the fold change is 1.59.

On to `N=c1oc2ccc3ccccc3c2cc1-c1nc(-c2ccccc2)cs1`, for which the IC50 is 4.67 µM and the fold change was 8.37.

Regarding `O=C1c2cccc3c([N+](=O)[O-])ccc(c23)C(=O)N1Cc1cccnc1`, the IC50 was > 54 µM (inactive) and the fold change came out at 5.08.

Turning to `CCOC(=O)c1c(=O)n(O)c2ccc(OC)cc2[n+]1[O-]`, the IC50 is 8.11 µM and the fold change is 1.8.

With `COCCCn1c(=NC(=O)c2ccccc2)c(C#N)cc2c(=O)n3cccc(C)c3nc21`, the IC50 is 3.88 µM and the fold change came to 4.43.

With `Cc1ccc(OCCn2c(C3CC(=O)N(Cc4ccccc4)C3)nc3ccccc32)cc1` (centres undefined), the IC50 is > 54 µM (inactive) and the fold change amounted to 1.15.

Regarding `CCN(CC)c1ccc2cc(-c3nc(-c4ccc(OC)cc4)cs3)c(=O)oc2c1`, the IC50 was < 0.42 µM and the fold change stood at 58.

Turning to `O=[N+]([O-])c1cc(/C=N\Nc2nccs2)ccc1O`, the IC50 was 1.31 µM and the fold change worked out at 1.07.

Turning to `NC(=O)c1c(NC(=O)CSc2nnc(-c3ccco3)n2-c2ccccc2)sc2c1CCC2`, the IC50 is 46 µM (inactive) and the fold change amounted to 0.977.

On to `Cc1ccc(C)n1-c1cc(S(=O)(=O)N2CCOCC2)ccc1N1CCCC1`, for which the IC50 was > 54 µM (inactive) and the fold change was determined as 1.02.

For the compound `COc1ccc(OC)c(/C=c2\sc3nc(-c4cccs4)nn3c2=O)c1`, the IC50 is 6.04 µM and the fold change was found to be 5.71.

As to `Cc1nnc(N2C(=O)C(O)=C(C(=O)c3ccco3)C2c2ccc(F)cc2)s1` (centres undefined), the 50% inhibitory concentration (IC50) was 10.4 µM and the fold change was determined as 2.42.

With `CCc1ccc2nc3sc(C(=O)N4CCc5ccccc54)c(N)c3cc2c1`, the IC50 is < 0.42 µM and the fold change turned out to be 16.6.

Turning to `CC(C)(O)[C@H]1O[C@H]2CC[C@@]3(C)[C@@](O)(CC[C@H]4Cc5c([nH]c6ccccc56)[C@@]43C)C2=CC1=O`, the IC50 was 2.03 µM and the fold change was 3.36.

For the compound `Cn1cc(/C=C2\SC(=O)NC2=S)c2ccccc21`, the IC50 is > 54 µM (inactive) and the fold change worked out at 2.12.

For the compound `C1=C(c2ccc(-c3ccccc3)cc2)Nc2ncnn2C1c1ccco1` (centres undefined), the IC50 was < 0.42 µM and the fold change turned out to be 15.5.

Consider `COc1ccc2nc(N3CCCCC3)c(C#N)cc2c1`, for which the IC50 was 4.61 µM and the fold change was 3.52.

On to `O=C1C2C3C=CC(C3=C(c3ccccc3)c3ccccc3)C2C(=O)N1Cc1ccccc1` (centres undefined), for which the IC50 is > 54 µM (inactive) and the fold change was found to be 0.99.

With `CCSc1nnc(NC(=O)C(C(F)(F)F)C(F)(F)F)s1`, the IC50 was > 54 µM (inactive) and the fold change is 0.583.

As to `COC(=O)c1cc2n3ccccc3c(C)c(-c3ccccc3)c-2c1C(=O)OC`, the IC50 was 2.69 µM and the fold change turned out to be 4.46.

For the compound `Cc1ccc[n+](-c2[nH]c(=O)sc2/C=N/NC(=O)c2ccccc2[O-])c1`, the IC50 is 34.2 µM (inactive) and the fold change stood at 1.69.

As to `COc1ccc(S(=O)(=O)c2c(N)n(Cc3ccco3)c3nc4ccccc4nc23)cc1`, the IC50 is 9.62 µM and the fold change came out at 1.74.

On to `CCOc1ccc2nc(N3CCCN(C(=O)Nc4ccccc4C)CC3)c(C#N)cc2c1`, for which the IC50 is 8.65 µM and the fold change stood at 8.56.

In the case of `Cc1ccc(NC(=O)/C(C#N)=C(\N)C(Cl)(Cl)Cl)nc1`, the IC50 is 0.53 µM and the fold change amounted to 13.

With `COc1ccc(Nc2nc(=O)c3cc([N+](=O)[O-])ccc3s2)cc1`, the IC50 was > 54 µM (inactive) and the fold change was 0.377.

Regarding `COc1ccc(/C=C2\SC(=S)N(CCCC(=O)Nc3ccccn3)C2=O)cc1OC`, the IC50 is 8.78 µM and the fold change turned out to be 9.33.

Take `O=C(CSc1nc(-c2ccc(F)cc2)nc2c1Cc1ccccc1O2)Nc1ccc(C(=O)O)cc1`: the IC50 was 2.9 µM and the fold change amounted to 1.11.

In the case of `COc1ccc(S(=O)(=O)NCCc2ccc(F)cc2)cc1`, the IC50 is > 54 µM (inactive) and the fold change came to 0.98.

As to `CCOC(=O)c1c(C)[nH]c(C)c1C(=O)CSc1nc2ccccc2n1CC`, the IC50 is > 54 µM (inactive) and the fold change was 1.24.

In the case of `O=C(c1ccc2nc(-c3ccco3)c(-c3ccco3)nc2c1)N1CCN(c2ncccn2)CC1`, the IC50 was > 54 µM (inactive) and the fold change came out at 1.05.

For `Cc1ccc(N2C(=O)C3C(C(=O)c4ccccc4)=NN(c4ccccc4)C3C2=O)cc1` (centres undefined), the IC50 was 7.31 µM and the fold change was determined as 8.5.

As to `CCOC(=O)c1c(Nc2ccccc2N)cc(C)nc1C`, the IC50 was > 54 µM (inactive) and the fold change stood at 0.997.

Turning to `COC(=O)c1c(=O)n(O)c2ccc(OC)cc2[n+]1[O-]`, the IC50 is 4.69 µM and the fold change was determined as 2.93.

Turning to `Cc1ccc(N=Nc2c(N)[nH]n3c(=O)cc(-c4ccccc4)nc23)cc1`, the IC50 is > 54 µM (inactive) and the fold change is 1.02.

Turning to `COc1ccc2nc(-n3c(O)c(C4=c5ccccc5=NC4=O)[nH]c3=S)sc2c1`, the IC50 was 3.48 µM and the fold change was 0.923.

In the case of `CNC(=S)NN(c1ccccc1)c1ccccc1`, the IC50 was > 54 µM (inactive) and the fold change is 1.01.

As to `Cn1nc(-c2ccc(Cl)cc2)nc2c(=O)n(C)c(=O)nc1-2`, the IC50 is 7.16 µM and the fold change was found to be 3.19.

Consider `Cc1cc2nc3c(=O)n(CCc4ccccc4)c(=O)[nH]c3nc2cc1N`, for which the IC50 is < 0.42 µM and the fold change is 115.

On to `CN1C(=O)/C(=C2\SC(=S)N(CCCCCC(=O)O)C2=O)c2ccccc21`, for which the IC50 was 52.1 µM (inactive) and the fold change was 1.07.

Take `CCOC(=O)c1ccc(N2C(=O)C3C(C2=O)C(C(=O)c2ccc(Cl)cc2)N2CCCC32)cc1` (centres undefined): the IC50 was 2.54 µM and the fold change was 5.32.

Take `COc1cc(/C=C2\SC(=O)N(c3cccc(Cl)c3)C2=O)cc([N+](=O)[O-])c1O`: the IC50 was 3.51 µM and the fold change was found to be 1.04.

As to `CC1=CC(C#N)(C#N)C(C#N)(C#N)C(c2ccccc2)N1` (centres undefined), the IC50 is < 0.42 µM and the fold change was 10.

Consider `O=[N+]([O-])c1ccc(Sc2cccc3cccnc23)c2cccnc12`, for which the IC50 is 29.5 µM and the fold change is 2.58.

Consider `CCCCN1C(=O)C2Cc3c([nH]c4ccccc34)CN2C1=S` (centres undefined), for which the IC50 was 2.73 µM and the fold change is 5.04.

For `C#CCn1cc(C=C2C(=O)c3ccccc3C2=O)c2ccccc21`, the IC50 was 9.87 µM and the fold change worked out at 4.31.

Consider `Cn1nc([N+](=O)[O-])c(C(C#N)c2nc3ccccc3n2C)c(Cl)c1=O` (centres undefined), for which the IC50 was 2.39 µM and the fold change is 2.35.

Regarding `O=c1oc2cc(O)ccc2cc1-c1nc2c(s1)CCc1ccccc1-2`, the IC50 was < 0.42 µM and the fold change was found to be 37.6.

In the case of `CCn1c(CSc2nnc3ccccn23)nc2cc(C(=O)O)ccc21`, the IC50 is 4.04 µM and the fold change was determined as 1.93.
